Values of other authors as cited in US6455086B1, “Microorganism reduction methods and compositions for food cleaning” (The Procter & Gamble Company, priority 1999, dated 2002).
Structures can show the parent of a compound that is named as a salt.

Assays:
[1] = tested on: typical Gram negative and positive bacteria, fungi and yeasts; settings: used at a level from about 0.001% to about 0.5% by weight of the usage composition

| solubility in water | SMILES | effectiveness against typical Gram negative and positive bacteria, fungi and yeasts [1] |
| --- | --- | --- |
|  | Cn1sc2c(c1=O)CCC2 [Promexal, 2-methyl-4,5-trimethylene4-isothiazolin-3-one] | effective |
|  | O=c1[nH]sc2ccccc12 [Proxel, 1,2-benzisothiazolin-3-one] | effective |
| about 1.8% | [H]/N=C(\N/C(=N/[H])NCCCCCCNC(=N)NC(=N)Nc1ccc(Cl)cc1)Nc1ccc(Cl)cc1 [chlorhexidine diacetate salt, 1,1′-hexamethylene bis(5-(p-chlorophenyl)biguanide)] |  |
| about 70% | [H]/N=C(\N/C(=N/[H])NCCCCCCNC(=N)NC(=N)Nc1ccc(Cl)cc1)Nc1ccc(Cl)cc1 [chlorhexidine digluconate salt, 1,1′-hexamethylene bis(5-(p-chlorophenyl)biguanide)] |  |
